Usually inhibition stands for the change of the read-out against control, counted positive when it falls.

Results on two molecules are retold here after ChEMBL document CHEMBL4118098, “Discovery of DS28120313 as a potent orally active hepcidin production inhibitor: Design and optimization of novel 4,6-disubstituted indazole derivatives” (Bioorg Med Chem Lett, 2017).

In assay [1] the test system is Proto-oncogene tyrosine-protein kinase receptor Ret (Homo sapiens), P07949 [M918T]. The assay can be described thus: Inhibition of RET M918T mutant (unknown origin) at 0.19 uM relative to control.
Assay [2] has as its system Fibroblast growth factor receptor 4 (Homo sapiens), P22455 [V550L]. The experiment in a line: Inhibition of FGFR4 V550L mutant (unknown origin) at 0.19 uM relative to control.
In assay [3] the target is Protein kinase C beta type (Homo sapiens) (UniProt P05771). The experiment in a line: Inhibition of PKC-beta2 (unknown origin) at 0.19 uM relative to control.
Assay [4] deals with Casein kinase I isoform gamma-2 (Homo sapiens) (UniProt P78368). The experiment in a line: Inhibition of CK1-gamma2 (unknown origin) at 0.19 uM relative to control.
Assay [5] has as its target Dual specificity tyrosine-phosphorylation-regulated kinase 2 (Homo sapiens) (UniProt Q92630). The assay can be described thus: Inhibition of DYRK2 (unknown origin) at 0.19 uM relative to control.
The target in assay [6] is Tyrosine-protein kinase Mer (Homo sapiens) (UniProt Q12866). The assay can be described thus: Inhibition of Mer (unknown origin) at 0.19 uM relative to control.
In assay [7] the target is Serine/threonine-protein kinase D2 (Homo sapiens) (UniProt Q9BZL6). The experiment in a line: Inhibition of PKD2 (unknown origin) at 0.19 uM relative to control.
Assay [8] addresses Insulin receptor (Homo sapiens) (UniProt P06213). The experiment in a line: Inhibition of INSR (unknown origin) at 0.19 uM relative to control.
Assay [9] has as its target RAC-alpha serine/threonine-protein kinase (Homo sapiens) (UniProt P31749). The assay can be described thus: Inhibition of AKT1 (unknown origin) at 0.19 uM relative to control.
Assay [10] addresses Mitogen-activated protein kinase kinase kinase kinase 5 (Homo sapiens) (UniProt Q9Y4K4). The experiment in a line: Inhibition of KHS1 (unknown origin) at 0.19 uM relative to control.
The target in assay [11] is Rho-associated protein kinase 1 (Homo sapiens) (UniProt Q13464). The assay can be described thus: Inhibition of ROCK1 (unknown origin) at 0.19 uM relative to control.
Assay [12] addresses Tyrosine-protein kinase Fgr (Homo sapiens) (UniProt P09769). The assay can be described thus: Inhibition of FGR (unknown origin) at 0.19 uM relative to control.
The target in assay [13] is Tyrosine-protein kinase Tec (Homo sapiens) (UniProt P42680). The assay can be described thus: Inhibition of TEC (unknown origin) at 0.19 uM relative to control.
In assay [14] the target is Homeodomain-interacting protein kinase 4 (Homo sapiens) (UniProt Q8NE63). The experiment in a line: Inhibition of HIPK4 (unknown origin) at 0.19 uM relative to control.
Assay [15] deals with Ribosomal protein S6 kinase alpha-2 (Homo sapiens) (UniProt Q15349). The experiment in a line: Inhibition of RSK3 (unknown origin) at 0.19 uM relative to control.
Assay [16] addresses Calcium/calmodulin-dependent protein kinase type IV (Homo sapiens) (UniProt Q16566). The assay can be described thus: Inhibition of CAMK4 (unknown origin) at 0.19 uM relative to control.
Assay [17] deals with AMPK alpha2/beta1/gamma1 (Homo sapiens) (UniProt P54646+P54619+Q9Y478). The assay can be described thus: Inhibition of AMPK-alpha2/beta1/gamma1 (unknown origin) at 0.19 uM relative to control. The class given is protein-complex assay.
In assay [18] the target is Platelet-derived growth factor receptor beta (Homo sapiens) (UniProt P09619). The experiment in a line: Inhibition of PDGFR beta (unknown origin) at 0.19 uM relative to control.
For assay [19], the target named is NUAK family SNF1-like kinase 1 (Homo sapiens) (UniProt O60285). The assay can be described thus: Inhibition of NuaK1 (unknown origin) at 0.19 uM relative to control.
The target in assay [20] is Glycogen synthase kinase-3 beta (Homo sapiens) (UniProt P49841). The assay can be described thus: Inhibition of GSK3b (unknown origin) at 0.19 uM relative to control.
The target in assay [21] is Misshapen-like kinase 1 (Homo sapiens) (UniProt Q8N4C8). The experiment in a line: Inhibition of MINK (unknown origin) at 0.19 uM relative to control.
Assay [22] deals with Tyrosine-protein kinase Lyn (Homo sapiens) (UniProt P07948). The experiment in a line: Inhibition of LYNB (unknown origin) at 0.19 uM relative to control.
The target of assay [23] is Serine/threonine-protein kinase pim-2 (Homo sapiens) (UniProt Q9P1W9). The assay can be described thus: Inhibition of PIM2 (unknown origin) at 0.164 uM relative to control.
Assay [24] addresses RAC-beta serine/threonine-protein kinase (Homo sapiens) (UniProt P31751). The experiment in a line: Inhibition of AKT2 (unknown origin) at 0.164 uM relative to control.
Assay [25] concerns the target Ribosomal protein S6 kinase alpha-4 (Homo sapiens) (UniProt O75676). The assay can be described thus: Inhibition of MSK2 (unknown origin) at 0.164 uM relative to control.
The target of assay [26] is Fibroblast growth factor receptor 1 (Homo sapiens) (UniProt P11362). The assay can be described thus: Inhibition of FGFR1 (unknown origin) at 0.164 uM relative to control.
The target of assay [27] is Misshapen-like kinase 1 (Homo sapiens) (UniProt Q8N4C8). The assay can be described thus: Inhibition of MINK (unknown origin) at 0.164 uM relative to control.
The target of assay [28] is Dual specificity protein kinase CLK3 (Homo sapiens) (UniProt P49761). The experiment in a line: Inhibition of CLK3 (unknown origin) at 0.164 uM relative to control.
Assay [29] has as its target Protein kinase C theta type (Homo sapiens) (UniProt Q04759). The assay can be described thus: Inhibition of PKC-theta (unknown origin) at 0.164 uM relative to control.
For assay [30], the target named is Tyrosine-protein kinase Lyn (Homo sapiens) (UniProt P07948). The assay can be described thus: Inhibition of LYNB (unknown origin) at 0.164 uM relative to control.
The target of assay [31] is Tyrosine-protein kinase Srms (Homo sapiens) (UniProt Q9H3Y6). The experiment in a line: Inhibition of SRM (SRMS) (unknown origin) at 0.164 uM relative to control.
Assay [32] deals with MAP kinase-activated protein kinase 3 (Homo sapiens) (UniProt Q16644). The assay can be described thus: Inhibition of MAPKAPK3 (unknown origin) at 0.164 uM relative to control.
Assay [33] deals with Tyrosine-protein kinase ABL1 (Homo sapiens), P00519 [E255K]. The assay can be described thus: Inhibition of ABL1 E255K mutant (unknown origin) at 0.164 uM relative to control.
The target in assay [34] is Serine/threonine-protein kinase Nek9 (Homo sapiens) (UniProt Q8TD19). The assay can be described thus: Inhibition of NEK9 (unknown origin) at 0.164 uM relative to control.
The target in assay [35] is Cyclin-dependent kinase 2 (Homo sapiens) (UniProt P24941). The experiment in a line: Inhibition of CDK2 (unknown origin) at 0.164 uM relative to control.

The structures appear in SMILES notation.

For the molecule `Cc1[nH]nc(C2CC2)c1-c1ccc2c(-c3ccc(N4CCN(C)CC4)nc3)n[nH]c2c1`, the inhibition in [1] is 41%; in assay [2] it was 0.7%; in assay [3], 0.3%; in assay [4] it was 3.3%; in assay [5], -0.7%; in assay [6], -4%. Further, the inhibition is 9% in assay [7]; 1.7% in assay [8]; 1.7% in assay [9]; 80.3% in assay [10]; -7.3% in assay [11]; -3% in assay [12]. Also, the inhibition was 2% in assay [13]; -0.7% in assay [14]; -2.3% in assay [15]; 1.3% in assay [16]; 13.7% in [17]; 97% in [18]. Moreover, the inhibition in [19] worked out at 2.3%; in assay [20], 3.3%; in assay [21] it was 82.7%; in assay [22], 10.7%.
`COC(=O)Nc1cc(-c2c(C3CC3)n[nH]c2C)cc2[nH]ncc12`: the inhibition in assay [23] was -6%; in [24] it was 1.3%; in assay [25], 4%; in assay [26] it was 9.7%; in assay [27] it was 7%; in assay [28] it was 3.7%. Also, the inhibition in assay [29] was 7%; in assay [30] it was -0.3%; in assay [31] it was 3.3%; in [32] it was 6.3%; in [33] it was -2.3%; in assay [34], 0.3%. For the same molecule, in [35], the inhibition amounted to 9%.
